Results published in patent publication US20020137929A1, “1 - (3-heterocyclylphenyl) isothiourea, -isourea, -guanidine and -amidine herbicidal agents” (Intellectual Property Department, BASF Aktiengesellschaft, priority 1998, published 2002).

Experiments:
[1] = system: TRZAWR (Wheat, Winter, cv Riband); test: Postemergence herbicidal evaluation; assay type: in vivo, Triticum aestivum; settings: postemergence
Summary of the method: (§1)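 Two-week-old seedlings sprayed with compound in 50/50 acetone/water plus 0.5% TWEEN 20, at about 0.0156 to 0.500 kg/ha, nozzle at 40 psi. Kept in greenhouse; rated visually 4-5 weeks after treatment on a 0-9 scale versus control, repeat tests averaged.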

[2] = system: IPOHE (Morningglory, Ivyleaf); test: Postemergence herbicidal evaluation; assay type: in vivo, Ipomoea hederacea; settings: postemergence
Summary of the method: as §1

[3] = system: TRZAWR (Wheat, Winter, cv Riband); test: Preemergence herbicidal evaluation; assay type: in vivo, Triticum aestivum; settings: rated 4-5 weeks after treatment
Summary of the method: (§2)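 Scores (0–9) reflect visual comparison with control plants for stand, vigor, malformation, size and chlorosis. Compound was applied to the soil after sowing, before emergence, as an aqueous acetone spray (about 0.0156–0.500 kg/ha), and cups were kept in a greenhouse for 4–5 weeks.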

AMBEL (Ragweed, Common) = test: Preemergence herbicidal evaluation; assay type: in vivo, Ambrosia artemisifolia; settings: rated 4-5 weeks after treatment
Summary of the method: as §2

[4] = system: GLXMAW (Soybean, Williams); test: Preemergence herbicidal evaluation; assay type: in vivo, Glycine max, (L.) Merr. cv Williams; settings: rated 4-5 weeks after treatment
Summary of the method: as §2

ABUTH (Velvetleaf) [5] = test: Postemergence herbicidal evaluation; assay type: in vivo, Abutilon theophrasti; settings: postemergence
Summary of the method: as §1

ABUTH (Velvetleaf) [6] = test: Preemergence herbicidal evaluation; assay type: in vivo, Abutilon theophrasti; settings: rated 4-5 weeks after treatment
Summary of the method: as §2

[7] = system: SAGPY (Arrowhead (Pygmaea)); test: Preemergence weed control under flooded paddy conditions; assay type: in vivo, Sagittaria pygmaea; settings: rated 3-4 weeks after treatment
Summary of the method: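 Flooded-pot preemergence screen with silt loam and seeds in the upper 0.5 cm. Dose about 0.0313 to 0.500 kg/ha, delivered into flood water; visual 0-9 score after 3 to 4 weeks.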

CASOB (Sicklepod) = test: Preemergence herbicidal evaluation; assay type: in vivo, Cassia obtusifolia; settings: rated 4-5 weeks after treatment
Summary of the method: as §2

ZEAMX (Corn, Field) = test: Postemergence herbicidal evaluation; assay type: in vivo, Zea mays; settings: postemergence
Summary of the method: as §1

GALAP (Galium) = test: Preemergence herbicidal evaluation; assay type: in vivo, Galium aparine; settings: rated 4-5 weeks after treatment
Summary of the method: as §2

ORYSAT (Rice, Tebonnet) [8] = test: Preemergence herbicidal evaluation; assay type: in vivo, Oryza sativa, (L.) Tebonnet; settings: rated 4-5 weeks after treatment
Summary of the method: as §2

ORYSAT (Rice, Tebonnet) [9] = test: Rice tolerance to post-transplant applications, flooded paddy conditions (Table III); assay type: in vivo, Oryza sativa, (L.) Tebonnet; settings: in vivo
Summary of the method: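 Two ten-day-old Tebonnet seedlings transplanted into flooded silt loam (water 1.5 to 3 cm above soil); three days later the water surface was treated with compound in aqueous/acetone 50/50 at about 0.0313 to 0.500 kg/ha. Visual 0-9 injury rating versus control after three to four weeks in greenhouse.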

C#CCOC(=O)CN1C(=O)CSC1=Nc1cc(-n2c(=O)cc(C(F)(F)F)n(C)c2=O)c(F)cc1Cl [Compound 115, 2-Propynyl 2-{{2-chloro-5-[3,6-dihydro-3-methyl-2,6-dioxo-4-(trifluoromethyl)-1(2H)-pyrimidinyl]-4-fluorophenyl}imino}-4-oxo-3-thiazolidineacetate]
Herbicidal rating TRZAWR ([1]; rate 0.0158 kg/ha): 1.5
Herbicidal rating TRZAWR ([1]; rate 0.0315 kg/ha): 2.5
Herbicidal rating TRZAWR ([1]; rate 0.0630 kg/ha): 3.0
Herbicidal rating IPOHE ([2]; rate 0.0158 kg/ha): 9.0
Herbicidal rating IPOHE ([2]; rate 0.0315 kg/ha): 9.0
Herbicidal rating IPOHE ([2]; rate 0.0630 kg/ha): 9.0
Preemergence herbicidal rating TRZAWR ([3]; rate 0.0156 kg/ha): 0.0
Preemergence herbicidal rating TRZAWR ([3]; rate 0.0313 kg/ha): 0.0
Preemergence herbicidal rating TRZAWR ([3]; rate 0.0625 kg/ha): 0.0
Preemergence herbicidal rating TRZAWR ([3]; rate 0.1250 kg/ha): 0.0
Preemergence herbicidal rating TRZAWR ([3]; rate 0.2500 kg/ha): 4.0
Preemergence herbicidal rating AMBEL (AMBEL (Ragweed, Common); rate 0.0156 kg/ha): 0.0
Preemergence herbicidal rating AMBEL (AMBEL (Ragweed, Common); rate 0.0313 kg/ha): 0.0
Preemergence herbicidal rating AMBEL (AMBEL (Ragweed, Common); rate 0.0625 kg/ha): 0.0
Preemergence herbicidal rating AMBEL (AMBEL (Ragweed, Common); rate 0.1250 kg/ha): 0.0
Preemergence herbicidal rating AMBEL (AMBEL (Ragweed, Common); rate 0.2500 kg/ha): 1.0
Preemergence herbicidal rating GLXMAW ([4]; rate 0.0156 kg/ha): 0.0
Preemergence herbicidal rating GLXMAW ([4]; rate 0.0313 kg/ha): 0.0
Preemergence herbicidal rating GLXMAW ([4]; rate 0.0625 kg/ha): 1.0
Preemergence herbicidal rating GLXMAW ([4]; rate 0.1250 kg/ha): 3.0
Preemergence herbicidal rating GLXMAW ([4]; rate 0.2500 kg/ha): 4.0
Herbicidal rating ABUTH (ABUTH (Velvetleaf) [5]; rate 0.0158 kg/ha): 3.0
Herbicidal rating ABUTH (ABUTH (Velvetleaf) [5]; rate 0.0315 kg/ha): 9.0
Herbicidal rating ABUTH (ABUTH (Velvetleaf) [5]; rate 0.0630 kg/ha): 9.0
Preemergence herbicidal rating ABUTH (ABUTH (Velvetleaf) [6]; rate 0.0156 kg/ha): 0.0
Preemergence herbicidal rating ABUTH (ABUTH (Velvetleaf) [6]; rate 0.0313 kg/ha): 0.0
Preemergence herbicidal rating ABUTH (ABUTH (Velvetleaf) [6]; rate 0.0625 kg/ha): 0.0
Preemergence herbicidal rating ABUTH (ABUTH (Velvetleaf) [6]; rate 0.1250 kg/ha): 9.0
Preemergence herbicidal rating ABUTH (ABUTH (Velvetleaf) [6]; rate 0.2500 kg/ha): 9.0
SAGPY herbicidal effect rating ([7]; 0.0313 kg/ha): 2.0
SAGPY herbicidal effect rating ([7]; 0.0625 kg/ha): 3.0
SAGPY herbicidal effect rating ([7]; 0.1250 kg/ha): 5.0
SAGPY herbicidal effect rating ([7]; 0.2500 kg/ha): 6.0
Preemergence herbicidal rating CASOB (CASOB (Sicklepod); rate 0.0156 kg/ha): 2.0
Preemergence herbicidal rating CASOB (CASOB (Sicklepod); rate 0.0625 kg/ha): 0.0
Preemergence herbicidal rating CASOB (CASOB (Sicklepod); rate 0.1250 kg/ha): 4.0
Preemergence herbicidal rating CASOB (CASOB (Sicklepod); rate 0.2500 kg/ha): 2.0
Herbicidal rating ZEAMX (ZEAMX (Corn, Field); rate 0.0158 kg/ha): 5.0
Herbicidal rating ZEAMX (ZEAMX (Corn, Field); rate 0.0315 kg/ha): 6.5
Herbicidal rating ZEAMX (ZEAMX (Corn, Field); rate 0.0630 kg/ha): 7.0
Preemergence herbicidal rating GALAP (GALAP (Galium); rate 0.0156 kg/ha): 1.0
Preemergence herbicidal rating GALAP (GALAP (Galium); rate 0.0313 kg/ha): 3.0
Preemergence herbicidal rating GALAP (GALAP (Galium); rate 0.0625 kg/ha): 3.0
Preemergence herbicidal rating GALAP (GALAP (Galium); rate 0.1250 kg/ha): 7.0
Preemergence herbicidal rating GALAP (GALAP (Galium); rate 0.2500 kg/ha): 9.0
Preemergence herbicidal rating ORYSAT (ORYSAT (Rice, Tebonnet) [8]; rate 0.0156 kg/ha): 0.0
Preemergence herbicidal rating ORYSAT (ORYSAT (Rice, Tebonnet) [8]; rate 0.0313 kg/ha): 0.0
Preemergence herbicidal rating ORYSAT (ORYSAT (Rice, Tebonnet) [8]; rate 0.0625 kg/ha): 0.0
Preemergence herbicidal rating ORYSAT (ORYSAT (Rice, Tebonnet) [8]; rate 0.1250 kg/ha): 1.0
Preemergence herbicidal rating ORYSAT (ORYSAT (Rice, Tebonnet) [8]; rate 0.2500 kg/ha): 3.0

COC(=O)C(C)OC(=O)CN1C(=O)CSC1=Nc1cc(-n2c(=O)cc(C(F)(F)F)n(C)c2=O)c(F)cc1Cl (stereo not shown) [Compound 116, 2-{{2-Chloro-5-[3,6-dihydro-3-methyl-2,6-dioxo-4-(trifluoromethyl)-1(2H)-pyrimidinyl]-4-fluorophenyl}imino}-4-oxo-3-thiazolidineacetic acid, ester with methyl lactate]
Herbicidal rating TRZAWR ([1]; rate 0.0158 kg/ha): 1.5
Herbicidal rating TRZAWR ([1]; rate 0.0315 kg/ha): 2.5
Herbicidal rating TRZAWR ([1]; rate 0.0630 kg/ha): 2.5
ORYSAT herbicidal effect rating (rice tolerance) (ORYSAT (Rice, Tebonnet) [9]): 4.0
herbicidal effect rating, ORYSAT (rice tolerance) (ORYSAT (Rice, Tebonnet) [9]): 2.0
Herbicidal rating IPOHE ([2]; rate 0.0158 kg/ha): 9.0
Herbicidal rating IPOHE ([2]; rate 0.0315 kg/ha): 9.0
Herbicidal rating IPOHE ([2]; rate 0.0630 kg/ha): 9.0
Preemergence herbicidal rating TRZAWR ([3]; rate 0.0156 kg/ha): 0.0
Preemergence herbicidal rating TRZAWR ([3]; rate 0.0313 kg/ha): 0.0
Preemergence herbicidal rating TRZAWR ([3]; rate 0.0625 kg/ha): 0.0
Preemergence herbicidal rating TRZAWR ([3]; rate 0.1250 kg/ha): 0.0
Preemergence herbicidal rating TRZAWR ([3]; rate 0.2500 kg/ha): 1.0
Preemergence herbicidal rating AMBEL (AMBEL (Ragweed, Common); rate 0.0156 kg/ha): 0.0
Preemergence herbicidal rating AMBEL (AMBEL (Ragweed, Common); rate 0.0313 kg/ha): 0.0
Preemergence herbicidal rating AMBEL (AMBEL (Ragweed, Common); rate 0.0625 kg/ha): 2.0
Preemergence herbicidal rating AMBEL (AMBEL (Ragweed, Common); rate 0.1250 kg/ha): 2.0
Preemergence herbicidal rating AMBEL (AMBEL (Ragweed, Common); rate 0.2500 kg/ha): 1.0
Preemergence herbicidal rating GLXMAW ([4]; rate 0.0156 kg/ha): 1.0
Preemergence herbicidal rating GLXMAW ([4]; rate 0.0313 kg/ha): 1.0
Preemergence herbicidal rating GLXMAW ([4]; rate 0.0625 kg/ha): 0.0
Preemergence herbicidal rating GLXMAW ([4]; rate 0.1250 kg/ha): 1.0
Preemergence herbicidal rating GLXMAW ([4]; rate 0.2500 kg/ha): 2.0
Herbicidal rating ABUTH (ABUTH (Velvetleaf) [5]; rate 0.0158 kg/ha): 9.0
Herbicidal rating ABUTH (ABUTH (Velvetleaf) [5]; rate 0.0315 kg/ha): 9.0
Herbicidal rating ABUTH (ABUTH (Velvetleaf) [5]; rate 0.0630 kg/ha): 9.0
Preemergence herbicidal rating ABUTH (ABUTH (Velvetleaf) [6]; rate 0.0156 kg/ha): 0.0
Preemergence herbicidal rating ABUTH (ABUTH (Velvetleaf) [6]; rate 0.0313 kg/ha): 0.0
Preemergence herbicidal rating ABUTH (ABUTH (Velvetleaf) [6]; rate 0.0625 kg/ha): 4.0
Preemergence herbicidal rating ABUTH (ABUTH (Velvetleaf) [6]; rate 0.1250 kg/ha): 9.0
Preemergence herbicidal rating ABUTH (ABUTH (Velvetleaf) [6]; rate 0.2500 kg/ha): 9.0
herbicidal effect rating, SAGPY ([7]; 0.0313 kg/ha): 2.0
herbicidal effect rating, SAGPY ([7]; 0.0625 kg/ha): 3.0
SAGPY herbicidal effect rating ([7]; 0.1250 kg/ha): 5.0
SAGPY herbicidal effect rating ([7]; 0.2500 kg/ha): 6.0
Preemergence herbicidal rating CASOB (CASOB (Sicklepod); rate 0.0156 kg/ha): 0.0
Preemergence herbicidal rating CASOB (CASOB (Sicklepod); rate 0.0313 kg/ha): 0.0
Preemergence herbicidal rating CASOB (CASOB (Sicklepod); rate 0.0625 kg/ha): 0.0
Preemergence herbicidal rating CASOB (CASOB (Sicklepod); rate 0.1250 kg/ha): 0.0
Preemergence herbicidal rating CASOB (CASOB (Sicklepod); rate 0.2500 kg/ha): 2.0
Herbicidal rating ZEAMX (ZEAMX (Corn, Field); rate 0.0158 kg/ha): 4.5
Herbicidal rating ZEAMX (ZEAMX (Corn, Field); rate 0.0315 kg/ha): 4.5
Herbicidal rating ZEAMX (ZEAMX (Corn, Field); rate 0.0630 kg/ha): 4.5
Preemergence herbicidal rating GALAP (GALAP (Galium); rate 0.0156 kg/ha): 0.0
Preemergence herbicidal rating GALAP (GALAP (Galium); rate 0.0313 kg/ha): 0.0
Preemergence herbicidal rating GALAP (GALAP (Galium); rate 0.0625 kg/ha): 0.0
Preemergence herbicidal rating GALAP (GALAP (Galium); rate 0.1250 kg/ha): 0.0
Preemergence herbicidal rating GALAP (GALAP (Galium); rate 0.2500 kg/ha): 7.0
Preemergence herbicidal rating ORYSAT (ORYSAT (Rice, Tebonnet) [8]; rate 0.0156 kg/ha): 0.0
Preemergence herbicidal rating ORYSAT (ORYSAT (Rice, Tebonnet) [8]; rate 0.0313 kg/ha): 0.0
Preemergence herbicidal rating ORYSAT (ORYSAT (Rice, Tebonnet) [8]; rate 0.0625 kg/ha): 0.0
Preemergence herbicidal rating ORYSAT (ORYSAT (Rice, Tebonnet) [8]; rate 0.1250 kg/ha): 0.0
Preemergence herbicidal rating ORYSAT (ORYSAT (Rice, Tebonnet) [8]; rate 0.2500 kg/ha): 1.0
